For 39 compounds, IC50 results are on record in US8883766B2, “Ion channel modulators and methods of use” (Vertex Pharmaceuticals Incorporated, priority 2007, dated 2014).

Each structure is given as a SMILES string. pIC50: −log10 of the molar value. Like-named read-outs stand apart in the source and are kept apart here. Where only a bound is given, the exact number is not on record here.

Test [1] deals with T1, NaV1.3 (Homo sapiens, UniProt Q9NY46).
T1 construct: expressed in transfected cells
The note with it: read-out: TTX IC50; cited from earlier work.

Test [2] deals with T1, NaV1.3. The test is described as follows: VIPR optical membrane potential assay with electrical stimulation, HEK293 cells stably expressing NaV1.3. Conditions: compound activity for the NaV1.3 receptors. The class given is cell-based. The protocol:
Compounds of the invention are useful as antagonists of voltage-gated sodium ion channels. Antagonist properties of test compounds were assessed as follows. Cells expressing the NaV of interest were placed into microtiter plates. After an incubation period, the cells were stained with fluorescent dyes sensitive to the transmembrane potential. The test compounds were added to the microtiter plate. The cells were stimulated with either chemical or electrical means to evoke a NaV dependent membrane potential change from unblocked channels, which was detected and measured with trans-membrane potential-sensitive dyes. Antagonists were detected as a decreased membrane potential response to the stimulus. The optical membrane potential assay utilized voltage-sensitive FRET sensors described by Gonzalez and Tsien (See, Gonzalez, J. E. and R. Y. Tsien (1995) “Voltage sensing by fluorescence resonance energy transfer in single cells” Biophys J 69(4): 1272-80, and Gonzalez, J. E. and R. Y. Tsien (1997) “Improved indicators of cell membrane potential that use fluorescence resonance energy transfer” Chem Biol 4(4): 269-77) in combination with instrumentation for measuring fluorescence changes such as the Voltage/Ion Probe Reader (VIPR®) (See, Gonzalez, J. E., K. Oades, et al. (1999) “Cell-based assays and instrumentation for screening ion-channel targets” Drug Discov Today 4(9): 431-439).
The following is an example of how NaV1.3 inhibition activity is measured using the optical membrane potential method #2. Other subtypes are performed in an analogous mode in a cell line expressing the NaV of interest.
HEK293 cells stably expressing NaV1.3 are plated into 96-well microtiter plates. After an appropriate incubation period, the cells are stained with the voltage sensitive dyes CC2-DMPE/DiSBAC2(3) as follows.
2×CC2-DMPE=20 μM CC2-DMPE: 10 mM CC2-DMPE is vortexed with an equivalent volume of 10% pluronic, followed by vortexing in required amount of HBSS containing 10 mM HEPES. Each cell plate will require 5 mL of 2×CC2-DMPE. 50 μL of 2×CC2-DMPE is added to wells containing washed cells, resulting in a 10 μM final staining concentration. The cells are stained for 30 minutes in the dark at RT.
2×DISBAC2(3) with ABSC1=6 μM DISBAC2(3) and 1 mM ABSC1: The required amount of 10 mM DISBAC2(3) is added to a 50 ml conical tube and mixed with 1 μL 10% pluronic for each mL of solution to be made and vortexed together. Then HBSS/HEPES is added to make up 2× solution. Finally, the ABSC1 is added.
The 2×DiSBAC2(3) solution can be used to solvate compound plates. Note that compound plates are made at 2× drug concentration. Wash stained plate again, leaving residual volume of 50 μL. Add 50 μL/well of the 2×DiSBAC2(3) w/ ABSC1. Stain for 30 minutes in the dark at RT.
The electrical stimulation instrument and methods of use are described in ION Channel Assay Methods PCT/US01/21652, herein incorporated by reference. The instrument comprises a microtiter plate handler, an optical system for exciting the coumarin dye while simultaneously recording the coumarin and oxonol emissions, a waveform generator, a current- or voltage-controlled amplifier, and a device for inserting electrodes in well. Under integrated computer control, this instrument passes user-programmed electrical stimulus protocols to cells within the wells of the microtiter plate.
Use the current-controlled amplifier to deliver stimulation wave pulses for 3 s. Two seconds of pre-stimulus recording are performed to obtain the un-stimulated intensities. Five seconds of post-stimulation recording are performed to examine the relaxation to the resting state.
Data are analyzed and reported as normalized ratios of background-subtracted emission intensities measured in the 460 nm and 580 nm channels. Background intensities are then subtracted from each assay channel. […]

T1 sequence (Q9NY46 whole entry): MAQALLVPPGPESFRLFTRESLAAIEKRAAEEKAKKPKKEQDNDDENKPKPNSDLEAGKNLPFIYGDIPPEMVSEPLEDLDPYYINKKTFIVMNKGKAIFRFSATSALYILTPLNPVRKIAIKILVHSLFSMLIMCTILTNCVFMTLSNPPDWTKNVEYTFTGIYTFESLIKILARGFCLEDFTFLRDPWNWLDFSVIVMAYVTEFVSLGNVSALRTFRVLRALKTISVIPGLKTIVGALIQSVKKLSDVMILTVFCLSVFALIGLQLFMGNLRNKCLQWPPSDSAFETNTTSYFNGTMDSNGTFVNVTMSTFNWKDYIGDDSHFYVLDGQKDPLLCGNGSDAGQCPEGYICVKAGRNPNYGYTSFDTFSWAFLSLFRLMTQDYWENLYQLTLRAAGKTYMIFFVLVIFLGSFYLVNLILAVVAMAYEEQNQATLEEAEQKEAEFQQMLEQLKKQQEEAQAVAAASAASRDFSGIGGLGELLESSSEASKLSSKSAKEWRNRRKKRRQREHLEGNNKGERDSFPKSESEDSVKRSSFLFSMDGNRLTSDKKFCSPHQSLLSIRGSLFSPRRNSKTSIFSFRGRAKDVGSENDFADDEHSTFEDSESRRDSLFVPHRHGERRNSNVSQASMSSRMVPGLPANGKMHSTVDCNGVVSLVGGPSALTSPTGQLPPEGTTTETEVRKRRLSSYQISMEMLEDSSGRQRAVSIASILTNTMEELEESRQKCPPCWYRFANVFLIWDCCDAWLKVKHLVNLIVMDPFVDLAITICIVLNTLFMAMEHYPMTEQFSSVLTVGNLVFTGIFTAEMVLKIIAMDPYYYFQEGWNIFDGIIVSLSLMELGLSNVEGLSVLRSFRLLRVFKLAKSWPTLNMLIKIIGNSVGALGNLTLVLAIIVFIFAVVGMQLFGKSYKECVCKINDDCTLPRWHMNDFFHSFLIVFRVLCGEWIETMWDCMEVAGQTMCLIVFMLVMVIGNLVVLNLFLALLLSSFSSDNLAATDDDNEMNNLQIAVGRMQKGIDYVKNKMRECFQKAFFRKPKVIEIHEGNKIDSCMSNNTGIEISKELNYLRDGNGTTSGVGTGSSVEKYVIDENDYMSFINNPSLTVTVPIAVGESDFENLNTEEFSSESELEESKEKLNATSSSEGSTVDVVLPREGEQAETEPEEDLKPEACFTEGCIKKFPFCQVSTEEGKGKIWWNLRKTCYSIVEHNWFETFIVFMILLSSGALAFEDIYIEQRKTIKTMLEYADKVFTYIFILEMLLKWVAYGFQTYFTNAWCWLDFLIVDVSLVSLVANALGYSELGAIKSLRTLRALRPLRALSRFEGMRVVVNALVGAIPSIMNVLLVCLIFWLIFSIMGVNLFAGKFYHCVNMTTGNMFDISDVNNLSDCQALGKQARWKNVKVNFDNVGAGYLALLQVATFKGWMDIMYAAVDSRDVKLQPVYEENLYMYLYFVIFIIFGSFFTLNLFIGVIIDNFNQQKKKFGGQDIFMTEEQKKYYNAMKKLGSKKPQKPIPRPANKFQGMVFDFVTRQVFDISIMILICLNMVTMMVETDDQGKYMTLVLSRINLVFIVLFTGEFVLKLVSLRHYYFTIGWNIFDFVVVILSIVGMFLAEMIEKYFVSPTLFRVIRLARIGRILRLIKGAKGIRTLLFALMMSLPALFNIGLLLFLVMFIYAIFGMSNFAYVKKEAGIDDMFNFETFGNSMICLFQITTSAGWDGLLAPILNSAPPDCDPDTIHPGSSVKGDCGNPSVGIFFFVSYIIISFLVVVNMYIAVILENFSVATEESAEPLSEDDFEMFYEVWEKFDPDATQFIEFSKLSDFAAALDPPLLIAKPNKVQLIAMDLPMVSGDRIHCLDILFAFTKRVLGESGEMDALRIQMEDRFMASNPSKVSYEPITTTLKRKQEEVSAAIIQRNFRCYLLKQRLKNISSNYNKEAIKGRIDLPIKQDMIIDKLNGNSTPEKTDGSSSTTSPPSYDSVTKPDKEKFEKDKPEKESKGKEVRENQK

One may read the pIC50 as the negative decadic logarithm of the IC50, by convention in mol/L. In the case of `NC1=N[C@H](O)[C@H]2[C@H]3O[C@]4(O)O[C@@H]([C@@H](O)[C@@]2(N1)[C@@H]4O)[C@]3(O)CO` [TTX, tetrodotoxin], on NaV1.3 [1], the pIC50 was 7.82.

In the case of `C[C@H](C(=O)Nc1ccc(S(=O)(=O)NC(=O)C2CC2)cc1)n1ccc2c(F)cccc21` [Compound 21], at NaV1.3 [2], the pIC50 is under 5.30.

In the case of `COC(=O)NS(=O)(=O)c1ccc(NC(=O)c2cc3c(F)cc(Cl)cc3[nH]2)cc1` [Compound 81], on NaV1.3 [2], the negative logarithm of the IC50 (pIC50) was under 5.30.

Regarding `COC(=O)NS(=O)(=O)c1ccc(NC(=O)CCn2ccc3cccc(Cl)c32)cc1` [Compound 1], the pIC50 at NaV1.3 [2] is under 5.30.

On to `C[C@H](C(=O)Nc1ccc(S(=O)(=O)NC(=O)C2CCC2)cc1)n1ccc2c(F)cccc21` [Compound 42], for which the pIC50 at NaV1.3 [2] was under 5.30.

Turning to `COC(=O)NS(=O)(=O)c1ccc(NC(=O)Cn2cc(C)c3ccccc32)cc1` [Compound 12], on NaV1.3 [2], the pIC50 was under 5.30.

Consider `COC(=O)NS(=O)(=O)c1ccc(C2CCN(C(=O)Cn3ccc4ccc(Cl)cc43)CC2)cc1` [Compound 32], for which the pIC50 on NaV1.3 [2] was under 5.30.

Take `COC(=O)NS(=O)(=O)c1ccc(NC(=O)[C@H](C)Oc2cccc(Cl)c2Cl)cc1` [Compound 65]: at NaV1.3 [2], the pIC50 is under 5.30.

In the case of `Cc1cc(C(=O)NS(=O)(=O)c2ccc(NC(=O)[C@@H](C)n3ccc4c(F)cccc43)cc2)c(C)o1` [Compound 66, (R)—N-(4-(2-(4-fluoro-1H indol-1-yl)propanamido)phenylsulfonyl)-2,5-dimethylfuran-3-carboxamide], on NaV1.3 [2], the pIC50 was under 5.30.

Turning to `COC(=O)NS(=O)(=O)c1ccc(NC(=O)[C@@H](CC(C)C)n2ccc3c(F)cccc32)cc1` [Compound 23, (R)-methyl 4-(2-(4-fluoro-1H-indol-1-yl)-4-methylpentanamido) phenylsulfonylcarbamate], the pIC50 on NaV1.3 [2] is over 5.70.

With `COC(=O)NS(=O)(=O)c1ccc(N2CCN(C(=O)[C@@H](C)N3CCCc4cc(F)ccc43)CC2)cc1` [Compound 61, (R)-methyl 4-(4-(2-(6-fluoro-3,4-dihydroquinolin-1(2H)-yl)propanoyl)piperazin-1-yl)phenylsulfonylcarbamate], the pIC50 at NaV1.3 [2] was under 5.30.

Take `COC(=O)NS(=O)(=O)c1ccc(NC(=O)[C@@H](C)n2ccc3ccc(Cl)cc32)cc1` [Compound 16]: the pIC50 at NaV1.3 [2] is 5.30 to 5.70.

On to `COC(=O)NS(=O)(=O)c1ccc(NC(=O)[C@@H](C)N2CCCc3cc(Cl)ccc32)cc1` [Compound 6, (R)-methyl 4-(2-(6-chloro-3,4-dihydroquinolin-1(2H)-yl)propanamido)phenylsulfonylcarbamate], for which the pIC50 on NaV1.3 [2] was over 5.70.

With `COC(=O)NS(=O)(=O)c1ccc(NC(=O)c2ccc(OC)cc2)cc1` [Compound 88], the pIC50 at NaV1.3 [2] is under 5.30.

On to `COC(=O)NS(=O)(=O)c1ccc(NC(=O)c2cc3c(F)cc(F)cc3[nH]2)cc1` [Compound 18], for which the pIC50 on NaV1.3 [2] was under 5.30.

As for `COC(=O)NS(=O)(=O)c1ccc(NC(=O)Cn2ccc3cc(F)ccc32)cc1` [Compound 27], the pIC50 on NaV1.3 [2] was under 5.30.

For `COC(=O)NS(=O)(=O)c1ccc(NC(=O)Cc2ccccc2)cc1` [Compound 56], at NaV1.3 [2], the pIC50 was under 5.30.

As to `COC(=O)NS(=O)(=O)c1ccc(NC(=O)COc2ccc(Cl)c(Cl)c2)cc1` [Compound 64], the pIC50 on NaV1.3 [2] was under 5.30.

Consider `COC(=O)NS(=O)(=O)c1ccc(NC(=O)[C@H](CC(C)C)N2CCCc3cc(Cl)ccc32)cc1` [Compound 5], for which the pIC50 at NaV1.3 [2] was under 5.30.

For the compound `CCC(=O)NS(=O)(=O)c1ccc(NC(=O)C(C)n2ccc3ccccc32)cc1` (stereo not drawn) [Compound 46], the pIC50 on NaV1.3 [2] was under 5.30.

Regarding `COC(=O)NS(=O)(=O)c1ccc(N2CC[C@H](N3CCCc4cc(Cl)ccc43)C2=O)cc1` [Compound 53, (S)-methyl 4-(3-(6-chloro-3,4-dihydroquinolin-1(2H)-yl)-2-oxopyrrolidin-1-yl)phenylsulfonylcarbamate], the pIC50 on NaV1.3 [2] was under 5.30.

As to `C[C@H](C(=O)Nc1ccc(S(=O)(=O)NC(=O)c2ccccc2)cc1)n1ccc2c(F)cccc21` [Compound 74, (R)—N-(4-(2-(4-fluoro-1H indol-1-yl)propanamido)phenylsulfonyl)benzamide], the pIC50 on NaV1.3 [2] was under 5.30.

`CCOC(=O)NS(=O)(=O)c1ccc(NC(=O)[C@@H](C)n2ccc3c(F)cccc32)cc1` [Compound 43, (R)-Ethyl 4-(2-(4-fluoro-1H-indol-1-yl)propanamido)phenylsulfonyl-carbamate]: the pIC50 at NaV1.3 [2] was under 5.30.

`COC(=O)NS(=O)(=O)c1ccc(NC(=O)[C@H](C(C)C)N2CCCc3cc(Cl)ccc32)cc1` [Compound 24]: the pIC50 on NaV1.3 [2] is under 5.30.

Turning to `COC(=O)NS(=O)(=O)c1ccc(NC(=O)Cn2c(C)cc3cc(Cl)ccc32)cc1` [Compound 33], the pIC50 at NaV1.3 [2] is under 5.30.

On to `C[C@H](C(=O)Nc1ccc(S(=O)(=O)NC(N)=O)cc1)n1ccc2c(F)cccc21` [Compound 63], for which the negative logarithm of the IC50 (pIC50) at NaV1.3 [2] was 5.30 to 5.70.

Turning to `COC(=O)NS(=O)(=O)c1ccc(NC(=O)C(C)n2ccc3cc(Cl)ccc32)cc1` (stereo not drawn) [Compound 20], at NaV1.3 [2], the pIC50 is 5.30 to 5.70.

Take `COC(=O)NS(=O)(=O)c1ccc(NC(=O)CCCOc2ccc(Cl)cc2Cl)cc1` [Compound 37]: the pIC50 on NaV1.3 [2] was under 5.30.

For the compound `CCC(=O)NS(=O)(=O)c1ccc(NC(=O)COc2ccnc3c(C(F)(F)F)cccc23)cc1` [Compound 71], the pIC50 at NaV1.3 [2] is under 5.30.

In the case of `NC(=O)NS(=O)(=O)c1ccc(NC(=O)CCn2ccc3cc(Cl)ccc32)cc1` [Compound 4], the negative logarithm of the IC50 (pIC50) on NaV1.3 [2] was under 5.30.

Consider `COC(=O)NS(=O)(=O)c1ccc(NC(=O)[C@H](C)n2ccc3c(F)cccc32)cc1` [Compound 17], for which, on NaV1.3 [2], the pIC50 was under 5.30.

Regarding `COC(=O)NS(=O)(=O)c1ccc(NC(=O)[C@@H](C)N2CCCc3cc(Cl)c(C)cc32)cc1` [Compound 22], on NaV1.3 [2], the pIC50 was over 5.70.

With `CCOC(=O)NS(=O)(=O)c1ccc(N2CCN(C(=O)[C@@H](C)N3CCCc4cc(Cl)ccc43)CC2)cc1` [Compound 52], the pIC50 at NaV1.3 [2] was under 5.30.

Regarding `COC(=O)NS(=O)(=O)c1ccc(NC(=O)[C@@H](C)n2ccc3ccc(C(F)(F)F)cc32)cc1` [Compound 87, (R)-methyl 4-(2-(6-(trifluoromethyl)-1H-indol-1-yl)propanamido)phenylsulfonylcarbamate], on NaV1.3 [2], the pIC50 was over 5.70.

Turning to `COC(=O)NS(=O)(=O)c1ccc(NC(=O)Cn2cc(C#N)c3ccccc32)cc1` [Compound 19], at NaV1.3 [2], the pIC50 is under 5.30.

As for `COC(=O)NS(=O)(=O)c1ccc(NC(=O)NC2Cc3ccccc3C2)cc1` [Compound 2], the pIC50 at NaV1.3 [2] was under 5.30.

`COC(=O)NS(=O)(=O)c1ccc(NC(=O)[C@H](C)n2ccc3ccc(Cl)cc32)cc1` [Compound 80]: the pIC50 at NaV1.3 [2] was under 5.30.

For the compound `COC(=O)NS(=O)(=O)c1ccc(NC(=O)[C@@H](C)N2CCCc3cc(F)ccc32)cc1` [Compound 55], on NaV1.3 [2], the negative-log IC50 (pIC50) is under 5.30.

For `COC(=O)NS(=O)(=O)c1ccc(NC(=O)[C@@H](C(C)C)N2CCCc3cc(Cl)ccc32)cc1` [Compound 10], the pIC50 at NaV1.3 [2] was 5.30 to 5.70.
